What is called logD is the decadic logarithm of the distribution of all forms, ionised or not, between an organic phase and buffer at a given pH. A higher logD goes with a more lipophilic compound. What is called solubility is the concentration that dissolves in the medium under given conditions. A higher solubility goes with much dissolved substance.

In series [1] the target is c-MYC Pu22 G4 DNA. As to the kind of experiment: Microscale thermophoresis (MST), c-MYC Pu22 G4 DNA. Type of series: binding, human. Conditions: Cy5-labeled c-MYC Pu22 G4 DNA 25 nM; pH 7.4, 100 mM KCl; read-out: apparent Kd (MST). The protocol: To evaluate the apparent binding affinities (Kd) for the compound series, we next used microscale thermophoresis (MST) with fluorescently labeled c-MYC Pu22 G4 DNA (Table S1). Overall, the measured MST binding results for compounds 2–11 corresponded well with the results from the FRET assay (Figures 2B and S3).
5′-Cy5 labeled G4 DNAs for this study were purchased from Eurofins Genomics. Stock solutions were prepared in water at 100 μM concentration. The sequences used are listed in Supporting Information Table S1. The G4 DNA sequences were folded in KCl buffer (10 mM phosphate, 100 mM KCl, pH 7.4) by heating at 95 °C for 5 min and then cooling to room temperature. All the experiments were performed in 10 mM phosphate pH 7.4, 100 mM KCl, and 0.05% Tween20. The labeled DNA concentration is held constant at 25 nM, and ligand concentration is varied depending on ligands Kd (16 1:3 dilutions). The samples were loaded into standard MST graded glass capillaries and initial fluorescence intensity of the capillary was measured using Monolith NT.115 (Nano Temper, Germany) with 20% LED power. The change in fluorescence with ligand’s concentrations were plotted in Excel and fitted through nonlinear equation to obtain the binding constants. […]
Microscale Thermophoresis (MST)
5'- Cy5 labelled G4 DNAs for this study were purchased from Eurofins Genomics. Stock solutions were prepared in water at […] concentration. The sequences used are listed in supplementary Table S1. The G4 DNA sequences were folded in KCl buffer (10 mM phosphate, 100 mM KCl, pH 7.4) by heating at 95 °C for 5 min and then cooling to room temperature. All the experiments were performed in 10 mM phosphate pH 7.4, 100 mM KCl, 0.05% Tween20. The labelled DNA concentration is held constant at 25 nM and ligand concentration is varied depending on ligands Kd (sixteen 1:3 dilutions). The samples were loaded into standard MST graded glass capillaries and initial fluorescence intensity of the capillary were measured using Monolith NT.115 (Nano Temper, Germany) with 20% LED power. The change in fluorescence with ligand's concentrations were plotted in Excel and fitted through non-linear equation to obtain the binding constants.
(1 picture or pasted object on this page, not shown here)

Series [2] concerns G4 structure on DNA template (PEPu24T). As to the kind of experiment: Taq polymerase stop (primer extension) assay, G4 template. Conditions: compound 0.24 μM; compared to DMSO control. Type of series: biochemical. The text has this:
To challenge all the synthesized compounds (2–11 and 25–29) in a more intricate context, we conducted a Taq polymerase stop assay to evaluate their capacity to impede DNA synthesis through G4 stabilization. In this assay, we compared the progress of the Taq DNA polymerase along two distinct DNA templates: one with a G4 structure (Figure 5) and another serving as a non-G4 control (Figure S21). If an external species (e.g., G4 ligand) binds and stabilizes the G4 structure, the polymerase will be partially halted. The extent of this DNA polymerase stalling is dependent on the ability of the compound to stabilize the G4 on the DNA template. The increased G4 stabilization can be detected as a reduction in the amount of newly synthesized DNA that has reached the end of the DNA template (full-length/end-product). Analysis of these shorter terminated DNA products will give information about the precise location of the DNA polymerase stalling with a single nucleotide resolution. If the ligand imposes little to no stabilization or binding, the G4 is readily resolved by the DNA polymerase, and no difference in the amount of DNA end-product can therefore be expected upon the addition of the compound.
Templates for the primer extension assay were created by annealing 25 nt TET labeled primer (1 μM final concentration) to either PEPu24T or a mutated sequence not forming a G4, PEPu24T mut, (1.25 μM final concentration) in 100 mM KCl by heating to 95 °C for 5 min and slowly cooling to room temperature. […] Compounds were added in the indicated concentration and incubated on ice for 10 min before starting the reaction by adding dNTPs (100 μM final concentration) to the reaction and transferring it to 37 °C. Reactions were stopped after 15 min by addition of 10 μL of formamide loading buffer (0.5% SDS, 25 mM EDTA, 95% v/v formamide and xylene-cyanol). Samples were then loaded on a 12% polyacrylamide gel containing 7 M urea and 25% formamide and imaged using an Amersham Typhoon. The images were quantified using ImageJ 1.53e software, and the percentage of full-length product compared to a sample without compound was calculated.
Templates for the primer extension assay were created by annealing 25nt TET labelled primer (1 µM final concentration) to either PEPu24T or a mutated sequence not forming a G4, PEPu24T mut, (1.25 µM final concentration) in 100 mM KCl by heating to 95 °C for 5 min and slowly cooling to room temperature. The reaction mixture (10 µl) contained 1X Taq Buffer with KCl (10 mM Tris-HCl pH 8.8, 50 mM KCl, detergent), 25 mM MgCl2, […]
[…] Compounds were added in the indicated concentration and incubated on ice for 10 min before starting the reaction by adding dNTPs (100 µM final concentration) to the reaction and transferring it to 37 °C. Reactions were stopped after 15 min by addition of 10 µl of formamide loading buffer (0,5% SDS, 25 mM EDTA, 95% v/v formamide and xylene-cyanol). Samples were then loaded on a 12% polyacrylamide gel containing 7 M urea and 25% formamide and imaged using an Amersham™ Typhoon™.
The images were quantified using ImageJ 1.53e software and the percentage of full-length product compared to a sample without compound was calculated. […]

The next series is described as follows: logD at pH 7.4. Type of series: physicochemical. The protocol:
(§1) Physicochemical properties
(§2) The Physicochemical profiling (LogD, Solubility, Caco-2 cell permeability) was performed as previously
(§3) described.8 Cell viability was performed as described below.
(§4) Table S2. Pharmacokinetic Properties
(§5) Compound Structure logD, Solubility, Rat hepsa Human mics b

A short description of the next series: Solubility at pH 7.4. Type of series: physicochemical. As for the experimental part:
as §1, §2, §3, §4, §5

Series [3] in a line: Intrinsic clearance in rat hepatocytes. Type of series: in vitro ADME. The protocol:
(§6) All compounds (2–11, 25–29) were screened for their logD and solubility at pH 7.4 and for their intrinsic clearance in rat hepatocytes and human microsomes (Table S2). […] Replacing the basic amine side chain to a methyl substituent in the quinazolines (25–29) still retained good solubility (134 to over 1000 μM) but increased clearance in both rat hepatocytes and human microsomes. The logD was low for compounds with a basic amine side chain (2–11) and increased slightly when the amine was replaced with a methyl (25–29). As expected, additional substituents also affected the logD with the chloro-substituents increasing logD the most.
(§7) a Intrinsic clearance in rat hepatocytes ((μL/min)/10^6 cells).b Intrinsic clearance in human microsomes (μL/min/mg). […]

Series [4] is described as follows: Intrinsic clearance in human microsomes. Type of series: in vitro ADME. Conditions: read-out: Human mics: intrinsic clearance in human microsomes. As for the experimental part:
as §6, §7

A further series concerns the target Pu24T c-MYC G4 structure. As to the kind of experiment: Kd for binding to the Pu24T c-MYC G4 structure (supplementary CSV). More on the design: species or system human. The protocol:
5′-Cy5 labeled G4 DNAs for this study were purchased from Eurofins Genomics. Stock solutions were prepared in water at 100 μM concentration. The sequences used are listed in Supporting Information Table S1. The G4 DNA sequences were folded in KCl buffer (10 mM phosphate, 100 mM KCl, pH 7.4) by heating at 95 °C for 5 min and then cooling to room temperature. All the experiments were performed in 10 mM phosphate pH 7.4, 100 mM KCl, and 0.05% Tween20. The labeled DNA concentration is held constant at 25 nM, and ligand concentration is varied depending on ligands Kd (16 1:3 dilutions). The samples were loaded into standard MST graded glass capillaries and initial fluorescence intensity of the capillary was measured using Monolith NT.115 (Nano Temper, Germany) with 20% LED power. The change in fluorescence with ligand’s concentrations were plotted in Excel and fitted through nonlinear equation to obtain the binding constants.
The Supporting Information is available free of charge at https://pubs.acs.org/doi/10.1021/acs.jmedchem.3c02127. • Experimental procedures and data; assay data, computational results, and all cell data; NMR (^1H and ^13C) spectra for all compounds (with the exception of a few intermediates); and HPLC UV traces for the final compounds (PDF) • Molecular formula strings and Kd values for binding to the Pu24T c-MYC G4 structure (CSV)

Series [5] deals with c-MYC Pu22 G4 DNA. As to the kind of experiment: FRET melting assay, c-MYC Pu22 G4 DNA. Type of series: binding, human. As to conditions: c-MYC Pu22 G4 DNA; 5-40 equiv. An excerpt: The synthesized compounds (2–11) were first analyzed using a Förster resonance energy transfer (FRET) assay (Figure 2A). This assay measures the compounds’ ability to affect the thermal stability of fluorescently labeled DNA, in this case, the c-MYC Pu22 G4 DNA (Table S1). […] The addition of one methyl group to the quinazoline core (3) provides almost twice as strong thermal stability compared to 2. The addition of a second methyl group (4) further increased stabilization, albeit modestly (by 0.5 °C). This slight increase between 3 and 4 could stem from the suboptimal positioning of the added methyl substituent in relation to the guanines on the G4 surface, compared to other positions on the quinazoline ring. […] Furthermore, the methyl-substituted (4) and the methoxy-substituted (6) display a similar G4 stabilization despite the strong electrostatic character of the methoxy substituent compared to the neutral methyl group, which further supports that these interactions are dispersion-driven. This conclusion is further supported by the fact that the replacement of the methoxy group in 6 with chlorine in 7 results in a very similar stabilization as 3, 4, and 6.
Synthetic labeled oligonucleotides for the FRET study were purchased from Eurofins Genomics. Stock solutions were prepared in MQ-water at 100 μM concentration. The sequences used are listed in Supporting Information Table S1. All the oligonucleotides except Pu22 were prefolded in 10 mM lithium cacodylate buffer (pH 7.4), with 10 mM KCl and 90 mM LiCl by heating for 10 min at 95 °C and then cooling in fridge for at least 1 h. Pu22 was folded in 10 mM lithium cacodylate buffer (pH 7.4), with 2 mM KCl and 98 mM LiCl.
The FRET occurs between two dyes (5′-FAM as donor and 3′-TAMRA as acceptor) linked at both extremities of a DNA oligonucleotide. When the oligonucleotides are folded into G4 structures, the donor and acceptor are in proximity, which results in an energy transfer from the donor to the acceptor. This process can be detected by a reduction in the fluorescence emission of the donor. Fluorescence emission of the donor is recovered when the temperature increment triggers the thermal denaturation of the G4 structure. The experiments were performed in a Bio-Rad CFX96 real-time PCR device at temperatures from 10 to 95 °C at 1.5 °C/m heating rate using a 492 nm excitation wavelength and a 516 nm detection wavelength in 96-well plates. […] The stabilization (ΔTm) is calculated from comparison of Tm of the fluorescently labeled oligonucleotide in the presence or absence of the ligand. […]
The fluorescence resonance energy transfer (FRET) occurs between two dyes (5'-FAM as donor and 3'- TAMRA as acceptor) linked at both extremities of a DNA oligonucleotide. […]

Converted amounts (≈) assume the structure as drawn.

`Cc1ccc2nc(Nc3nc(C)cc(NCCCN(C)C)n3)nc(C)c2c1` [Compound 4, N4-(3-(Dimethylamino)propyl)-N2-(4,6-dimethylquinazolin-2-yl)-6-methylpyrimidine-2,4-diamine]: the Kd on c-MYC Pu22 G4 DNA [1] was found to be 0.1 µM; at Pu24T c-MYC G4 structure, 0.1 ± 0.01 µM. Moreover, the “full-length DNA product” value in series [2] is listed as “about 30%”. In the series “logD at pH 7.4”, this molecule came in with a logD of 0.4. In “Solubility at pH 7.4”, this molecule yielded a solubility above 1000 µM. Besides, in series [3], the “Rat heps: intrinsic clearance in rat hepatocytes” value (“Rat heps: intrinsic clearance” for short) is listed as < 1 (μL/min)/106 cells. Moreover, the microsomal CLint in series [4] was below 3 µL/min/mg.

Regarding `Cc1cc(NCCCN(C)C)nc(Nc2cnc3ccccc3n2)n1` [Compound 8, N4-(3-(Dimethylamino)propyl)-6-methyl-N2-(quinoxalin-2-yl)pyrimidine-2,4-diamine], in the series on c-MYC Pu22 G4 DNA [5], the “ability to stabilize the G4 structure (in words)” value was “almost no ability to stabilize the G4 structure”. For the same molecule, the Kd at c-MYC Pu22 G4 DNA [1] and on Pu24T c-MYC G4 structure was above 10 µM in each case. Also, the pH-dependent lipophilicity (logD) in the series “logD at pH 7.4” worked out at 1.4. Further, in “Solubility at pH 7.4”, the solubility was above 1000 µM. In addition, the “Rat heps: intrinsic clearance” value in series [3] is reported as 38 (μL/min)/106 cells. For the same molecule, in series [4], the microsomal CLint is 8 µL/min/mg.

As for `Cc1cc(NCCCN(C)C)nc(Nc2nc(C)c3ccccc3n2)n1` [Compound 3, N4-(3-(Dimethylamino)propyl)-6-methyl-N2-(4-methylquinazolin-2-yl)pyrimidine-2,4-diamine], the figures for the Kd at c-MYC Pu22 G4 DNA [1] and at Pu24T c-MYC G4 structure were 0.15 µM and 0.15 ± 0.01 µM, respectively. Moreover, the “full-length DNA product” value in series [2] is given as around 45%. The logD in the series “logD at pH 7.4” was 0. Further, in the series “Solubility at pH 7.4”, the solubility came out at 858 µM (≈ 302 µg/mL). Also, the “Rat heps: intrinsic clearance” value in series [3] is reported as 4 (μL/min)/106 cells. Further, the microsomal CLint in series [4] is below 3 µL/min/mg.
